Results from patent publication US20110178104A1, “Anti-Heparin Compounds” (POLYMEDIX INC., priority 2010, published 2011).
Like-named read-outs stand apart in the source and are kept apart here. Starred links: 1 amine or outer side, 2 acyl side, 3 side chain; linkers in the order of their positions; H or OH if unused. Non-standard residues stand in square brackets, D forms with d. Residues, ends and D or L forms follow the SMILES beside them. *: point of attachment. NH(3-CONH2-4-OMe-phenyl) = COc1ccc(N*)cc1C(N)=O; 3Abz(6-OMe) = COc1ccc(N[*:1])cc1C(=O)[*:2]

Assays:
enoxaparin (ENOX) = assay: FXa chromogenic assay (absence of plasma), enoxaparin
[1] = test system: unfractionated heparin (UFH); assay: aPTT clotting assay, UFH 0.2 U/mL in plasma (Example 7); type: biochemical
Procedure: aPTT clotting Assay. Unfractionated heparin was mixed with plasma at a final concentration of 0.2 U/mL. […] The ACL Elite Hemostasis analyzer (Beckman Coulter™) was used to add aPTT reagent (HemosIL SynthASil) to supplemented plasma. Clotting was initiated by addition of CaCl2 and time to clot was recorded.

fondaparinux (FONDAPX) = assay: FXa chromogenic assay (absence of plasma), fondaparinux
[2] = enoxaparin 0.1 μg/mL, absence of plasma
[3] = fondaparinux 0.02 μg/mL, absence of plasma

SMILES	ENOX (FXa) EC50 (enoxaparin (ENOX); [2])	UFH (aPTT) EC50 ([1]; UFH 0.2 U/mL in plasma)	FONDAPX (FXa) EC50 (fondaparinux (FONDAPX); [3])	ENOX (FXa) EC50 (enoxaparin (ENOX))	UFH (aPTT) EC50 [1]	FONDAPX (FXa) EC50 (fondaparinux (FONDAPX))
COc1ccc(NC(=O)[C@@H](CCCNC(=N)N)NC(=O)c2cc(NC(=O)[C@@H](CCCNC(=N)N)NC(=O)c3cc(NC(=O)[C@@H](CCCNC(=N)N)NC(=O)c4cc(NC(C)=O)ccc4OC)ccc3OC)ccc2OC)cc1C(=O)NCCN [Compound 52]	0.35 µg/mL	2.13 µg/mL	1.90 µg/mL			
COc1ccc(NC(=O)[C@@H](CCCNC(=N)N)NC(=O)c2cc(NC(=O)[C@@H](CCCNC(=N)N)NC(=O)c3cc(NC(=O)[C@H](CCCNC(N)=O)NC(=O)c4cc(NC(=O)[C@H](N)CCCNC(=N)N)ccc4OC)ccc3OC)ccc2OC)cc1C(N)=O [Compound 83]	1.02 µg/mL	4.73 µg/mL	14.79 µg/mL			
COc1ccc(C(=O)N[C@H](CCCCN)C(=O)Nc2cc(C(=O)N[C@H](CCCCN)C(=O)Nc3cc(C(=O)N[C@H](CCCCN)C(=O)Nc4cc(C(N)=O)ccc4OC)ccc3OC)ccc2OC)cc1NC(=O)[C@H](N)CCCCN [Compound 35]	45.00 µg/mL	30.65 µg/mL	inactive			
CN(C)CCNC(=O)c1cc(C(=O)NCCN(C)C)c(OCCCCCN)cc1OCCCCCN [Compound 4]	47.94 µg/mL	inactive	84.66 µg/mL			
COc1ccc(NC(=O)[C@@H](CCCNC(=N)N)NC(=O)c2cc(NC(=O)[C@@H](CCCNC(=N)N)NC(=O)c3cccc(NC(=O)[C@@H](CCCNC(=N)N)NC(=O)c4cc(NC(=O)[C@H](N)CCCNC(=N)N)ccc4OC)c3)ccc2OC)cc1C(N)=O [Compound 69]	0.19 µg/mL	1.58 µg/mL	2.74 µg/mL			
COc1ccc(NC(=O)[C@H](CCCCN)NC(=O)c2cc(NC(=O)[C@H](CCCCN)NC(=O)c3cc(NC(=O)[C@H](CCCCN)NC(=O)c4cc(NC(=O)[C@@H](N)CCCCN)ccc4OC)ccc3OC)ccc2OC)cc1C(=O)N[C@@H](C)C(=O)O [Compound 109]	0.6089 µg/mL	2.23 µg/mL	9.853 µg/mL			
COc1ccc(NC(=O)[C@H](CCCCCN)NC(=O)c2cc(NC(=O)[C@H](CCCCCN)NC(=O)c3cc(NC(=O)[C@H](CCCCCN)NC(=O)c4cc(NC(=O)[C@@H](N)CCCCCN)ccc4OC)ccc3OC)ccc2OC)cc1C(N)=O [Compound 98]	0.1731 µg/mL	3.14 µg/mL	inactive			
COc1ccc(NC(=O)[C@H](CCCCN)NC(=O)c2cc(NC(=O)[C@H](CCCCN)NC(=O)c3cc(NC(=O)[C@H](CCCCN)NC(=O)c4cc(C(=O)NCCCCCN)c(OC)cc4OC)ccc3OC)ccc2OC)cc1C(N)=O [Compound 102]	0.3328 µg/mL	3.32 µg/mL	2.938 µg/mL			
COc1ccc(NC(=O)[C@@H](CCCNC(=N)N)NC(=O)c2cc(NC(=O)[C@@H](CCCNC(=N)N)NC(=O)c3cc(NC(=O)[C@@H](CCCNC(=N)N)NC(=O)c4cc(NC(=O)[C@H](N)CCCNC(=N)N)ccc4OC)ccc3OCCNC(=N)N)ccc2OCCNC(=N)N)cc1C(N)=O [Compound 11]	1.66 µg/mL	5.79 µg/mL	7.04 µg/mL			
COc1ccc(NC(=O)[C@H](CCCCN)NC(=O)c2cc(NC(=O)[C@@H](N)CCCCN)ccc2OC)cc1C(=O)N[C@@H](CCCCN)C(=O)Nc1ccc(OC)c(C(=O)N[C@@H](CCCCN)C(=O)Nc2ccc(OC)c(C(=O)N[C@H](Cc3ccccc3)C(=O)O)c2)c1 [Compound 111]	1.348 µg/mL	2.54 µg/mL	>20 µg/mL			
COc1ccc(NC(=O)[C@H](CCCCN)NC(=O)c2cc(NC(=O)[C@H](CCCCN)NC(=O)c3cc(NC(=O)[C@H](CCCCN)NC(=O)c4cc(NC(=O)[C@@H](N)CCCCN)ccc4OC)ccc3OC)ccc2OC)cc1C(=O)O [Compound 96]	5.567 µg/mL	3.59 µg/mL	inactive			
COc1ccc(NC(=O)[C@@H](CCCNC(=N)N)NC(=O)c2cc(NC(=O)[C@@H](CCCNC(=N)N)NC(=O)[C@H](C)NC(=O)c3cc(NC(=O)[C@@H](CCCNC(=N)N)NC(=O)c4cc(NC(=O)[C@H](N)CCCNC(=N)N)ccc4OC)ccc3OC)ccc2OC)cc1C(N)=O [Compound 74] (H-[dR][3Abz(6-OMe)][dR][3Abz(6-OMe)]A[dR][3Abz(6-OMe)][dR]-{NH(3-CONH2-4-OMe-phenyl)})	5.13 µg/mL	5.20 µg/mL	47.76 µg/mL			
COc1ccc(NC(=O)[C@H](CCCCN)NC(=O)c2cc(NC(=O)[C@H](CCCNC(N)=O)NC(=O)c3cc(NC(=O)[C@H](CCCCN)NC(=O)c4cc(NC(=O)[C@@H](N)CCCCN)ccc4OC)ccc3OC)ccc2OC)cc1C(N)=O [Compound 139]	0.3196 µg/mL	2.46 µg/mL	2.485 µg/mL			
COc1ccc(NC(=O)[C@H](CCCNC(N)=O)NC(=O)c2cc(NC(=O)[C@H](CCCCN)NC(=O)c3cc(NC(=O)[C@H](CCCCN)NC(=O)c4cc(NC(=O)[C@@H](N)CCCCN)ccc4OC)ccc3OC)ccc2OC)cc1C(N)=O [Compound 140]	0.4309 µg/mL	2.52 µg/mL	4.636 µg/mL			
COc1ccc(NC(=O)[C@@H](CCCN)NC(=O)c2cc(NC(=O)[C@@H](CCCNC(=N)N)NC(=O)c3cc(NC(=O)[C@@H](CCCNC(=N)N)NC(=O)c4cc(NC(=O)[C@H](N)CCCN)ccc4OC)ccc3OC)ccc2OC)cc1C(N)=O [Compound 30]				0.28 µg/mL	1.52 µg/mL	3.99 µg/mL
COc1ccc(NC(=O)[C@H](CCCCN)NC(=O)c2cc(NC(=O)[C@H](CCCCN)NC(=O)c3cc(NC(=O)[C@H](CCCCN)NC(=O)c4cc(NC(=O)[C@@H](N)CCCCN)ccc4OC)ccc3OC)ccc2SC)cc1C(N)=O [Compound 133]	>20 µg/mL	>10 µg/mL	inactive			
COc1ccc(NC(=O)[C@H](CCCCN)NC(=O)c2cc(NC(=O)[C@H](CCCCN)NC(=O)c3cc(NC(=O)[C@H](CCCCN)NC(=O)c4cc(NC(=O)[C@@H](N)CCCCN)ccc4OC)ccc3OC)ccc2OC)cc1C(=O)N[C@@H](Cc1ccc(O)cc1)C(=O)O [Compound 112]	0.257 µg/mL	2.71 µg/mL	0.717 µg/mL			
COc1ccc(NC(=O)[C@H](CCCCN)NC(=O)c2cc(NC(=O)[C@H](CCCCN)NC(=O)c3cc(NC(=O)[C@H](CCCCN)NC(=O)c4cc(NC(=O)[C@H](C)N)ccc4OC)ccc3OC)ccc2OC)cc1C(N)=O [Compound 95]	0.5734 µg/mL	2.42 µg/mL	5.277 µg/mL			
COc1cc(OC)c(C(=O)N[C@H]2CC[C@H](NC(=O)c3cc(C(=O)NCCN(C)C)c(OCCNC(=N)N)cc3OCCNC(=N)N)CC2)cc1C(=O)N[C@H]1CC[C@H](NC(=O)c2cc(C(=O)NCCN(C)C)c(OCCNC(=N)N)cc2OCCNC(=N)N)CC1 [Compound 106]	1.66 µg/mL	Inactive	>20 µg/mL			
COc1ccc(NC(=O)[C@@H](CCCNC(=N)N)NC(=O)c2cc(NC(=O)[C@@H](CCCNC(=N)N)NC(=O)c3cc(NC(=O)[C@@H](CCCNC(=N)N)NC(=O)c4cc(NC(=O)CCCCNC(=N)N)ccc4OC)ccc3OC)ccc2OC)cc1C(N)=O [Compound 50]	0.22 µg/mL	1.67 µg/mL	1.12 µg/mL			
COc1ccc(NC(=O)[C@H](CCCCN)NC(=O)c2cc(NC(=O)[C@H](CCCCN)NC(=O)c3cc(NC(=O)[C@H](CCCCN)NC(=O)c4cc(NC(=O)[C@@H](N)CCCCN)ccc4OC)ccc3OC)ccc2OC)cc1C(=O)N[C@@H](Cc1ccccc1)C(=O)O [Compound 110]	0.694 µg/mL	2.31 µg/mL	2.951 µg/mL			
COc1cc(C(=O)Nc2cc(C(F)(F)F)cc(NC(=O)CCCCNC(=N)N)c2SCCN)c(OC)cc1C(=O)Nc1cc(C(F)(F)F)cc(NC(=O)CCCCNC(=N)N)c1SCCN [Compound 88]	0.24 µg/mL	4.30 µg/mL	1.38 µg/mL			
N=C(N)NCCC[C@@H](N)C(=O)Nc1ccc(Cl)c(C(=O)N[C@H](CCCNC(=N)N)C(=O)Nc2ccc(Cl)c(C(=O)N[C@H](CCCNC(=N)N)C(=O)Nc3ccc(Cl)c(C(=O)N[C@H](CCCNC(=N)N)C(=O)Nc4ccc(Cl)c(C(N)=O)c4)c3)c2)c1 [Compound 26]	3.93 µg/mL	4.26 µg/mL	36.65 µg/mL			
COc1ccc(NC(=O)[C@H](CCCCN)NC(=O)c2cc(NC(=O)[C@@H](N)CCCCN)ccc2OC)cc1C(=O)N[C@@H](CCCCN)C(=O)Nc1ccc(OC)c(C(=O)N[C@@H](CCCCN)C(=O)Nc2ccc(OC)c(C(=O)N[C@H](C)C(=O)O)c2)c1 [Compound 146]	1.027 µg/mL	2.74 µg/mL	19.030 µg/mL			
COc1ccc(NC(=O)[C@H](CCCCN)NC(=O)c2cc(NC(=O)[C@H](C)NC(=O)c3cc(NC(=O)[C@H](CCCCN)NC(=O)c4cc(NC(=O)[C@@H](N)CCCCN)ccc4OC)ccc3OC)ccc2OC)cc1C(N)=O [Compound 76]	1.49 µg/mL	6.00 µg/mL	10.50 µg/mL			
COc1cc(OC)c(C(=O)N[C@H]2CC[C@@H](NC(=O)c3cc(C(=O)NCCN(C)C)c(OCCCCCNC(=N)N)cc3OCCCCCNC(=N)N)CC2)cc1C(=O)N[C@H]1CC[C@@H](NC(=O)c2cc(C(=O)NCCN(C)C)c(OCCCCCNC(=N)N)cc2OCCCCCNC(=N)N)CC1 [Compound 103]	0.23 µg/mL	>4 µg/mL	0.64 µg/mL			
